US6949584B2, “TNP-470 species, polymer conjugates and use thereof” (Children's Medical Center Corporation, priority 2002, dated 2005)
Values joined by “and” are separate entries in the source; they are usually repeats but may differ in a detail not shown here. Equal values may be shown once. “Also recorded” adds a separate entry of the source.

Legend:
cathepsin B = cathepsin B (Homo sapiens, UniProt P07858); conditions: incubation with cathepsin B, pH 5.5, 37° C.
Description: These conditions imitate the lysosomal environment in endothelial cells where lysosomal enzymes, such as cathepsin B, are present.

LLC [1] = assay: Antitumor activity, C57BL/6J mice bearing s.c. LLC; conditions: for survival: 30 mg/kg q.o.d. TNP-470 equivalent; for T/C: day 8, treatment started at 500 mm^3; for tumor growth inhibition: day 8, 30 mg/kg q.o.d., treatment started at 100 mm^3
Text: Male C57BL/6J mice (˜8 weeks, ˜20 g) were inoculated with 5×10^6 viable LLC or A2058 melanoma cells s.c. The tumors were allowed to grow to a volume of approximately 100 mm^3. […] Each group consisted of 5 mice. Mice were euthanized when tumors reached or surpassed a size equivalent to 30% of their body weight. Animals were weighed daily and observed for signs of tumor progression and euthanized if their body weight decreased below 80% of their starting weight. Animals were monitored for general health, weight loss, and tumor progression. At termination, mice underwent post-mortem examination and tumors were dissected and weighed. […] The same dosing schedule was repeated with white SCID male mice (˜8 weeks, 20 g) inoculated with 5×10^6 viable A2058 human melanoma cells s.c. and treated as described above.

chick aortic ring = assay: Chick aortic ring endothelial sprouting assay; format: cell-based; conditions: Matrigel
Description: Aortic arches were dissected from day-14 chick embryos, cut into cross-sectional fragments, and implanted in vitro in Matrigel using a modification of methods previously described (V. Muthukkaruppan, personal communication). When cultured in MCDB-131 medium supplemented with 5% fetal bovine serum, endothelial cells sprouted and vascular channel formation occurred within 24-48 hours.

A2058 human melanoma = assay: Antitumor activity, SCID mice bearing s.c. A2058 human melanoma; format: in vivo; conditions: for T/C (mean tumor volume treated / untreated control) / survival: 30 mg/kg TNP-470 equivalent
Text: Each group consisted of 5 mice. […] 500 mm^3.

liver regeneration = assay: Hepatectomy (liver regeneration) model; format: in vivo, C57BL/6J mice; conditions: for average liver size on post-operative day 8: 30 mg/kg q.o.d. s.c., controls regenerate to ~1.2 g
Description: Male C57BL/6J mice underwent a partial hepatectomy through a midline incision after general anesthesia with isoflourane^33. Free or conjugated TNP-470 (30 mg/kg) were given s.c. every other day for 8 days beginning on the day of surgery according to the scheme described in FIG. 4a. Alternatively, the doses given were 60 mg/kg the day of surgery and 4 days later or 120 mg/kg once on the day of the partial hepatectomy. The liver was harvested on the 8th day, weighed and analyzed by histology.
This non-neoplastic model is a relatively fast (8 days) in vivo angiogenesis-dependent process^33.

[2] = clinical pharmacokinetics, in words; cited from earlier work
Early mouse development = conditions: injected into 7 and 17 day-old mice
[3] = test system: murine, human and metastatic tumors; conditions: cited from earlier work
[4] = Rotorod test and body weight, 5 weeks treatment
A2058 melanoma cells = assay: Serum-induced A2058 cell proliferation
Description: The dotted line represents the proliferation of bFGF-induced BCE or serum-induced A2058 cells (—) and the […] represents the BCE and A2058 cell proliferation in the absence of bFGF or serum, respectively ( - - - ).
BCE cells were obtained and grown as previously described^48. For the proliferation assay, cells were washed with PBS and dispersed in a 0.05% trypsin solution. […] The media was replaced with 0.25 ml of DMEM, 5% BCS and 1% GPS and the test sample applied. […] After 30 min of incubation, media and bFGF were added to obtain a final volume of 0.5 ml of DMEM, 5% BCS, 1% GPS and 1 ng/ml bFGF. Control cells were grown with or without bFGF. After 72 hr, cells were dispersed in trypsin, resuspended in Hematall (Fisher Scientific, Pittsburgh, Pa.), and counted in a Coulter counter.

in vivo = conditions: male, C57BL/6J, mouse, 30 mg/kg
LLC [5] = conditions: at doses of 60 and 90 mg/kg/q.o.d., stated as known; cited from earlier work
[6] = in mice, mostly 30 mg/kg subcutaneously every other day
[7] = 30 mg/kg q.o.d. s.c. for 5 weeks

Question: Which “time until TNP-470 release from the conjugate reached a plateau” value (cathepsin B) does the source give for “HPMA copolymer-Gly-Phe-Leu-Gly (SEQ ID NO: 1)-ethylenediamine-TNP-470 [HPMA copolymer-TNP-470]” here?
Answer: ≤ 5 h

Question: And the survival (LLC [1])?
Answer: increased survival

Question: And the T/C (LLC [1]; 30 mg/kg/q.o.d)?
Answer: 0.4

Question: What about the T/C (LLC [1]; 60 mg/kg/q.o.d) of the same compound?
Answer: 0.4

Question: What about the T/C (LLC [1]; 90 mg/kg/q.o.d) of the same compound?
Answer: 0.24

Question: And the tumor growth inhibition (LLC [1])?
Answer: 86%

Question: And the “concentration that completely prevented outgrowth” value (chick aortic ring)?
Answer: 100 pg/mL

Question: And the “concentration that reduced the number and length of vascular sprouts” value (chick aortic ring)?
Answer: 50 pg/mL

Question: What about the “T/C (mean tumor volume treated / untreated control)” value (A2058 human melanoma) of the same compound?
Answer: 0.12

Question: What about the survival (A2058 human melanoma) of the same compound?
Answer: increased survival

Question: What about the “T/C values for the conjugate” value (A2058 human melanoma; summary statement in the conclusions, model not named) of the same compound?
Answer: 0.12-0.14

Question: What about the “average liver size on post-operative day 8” value (liver regeneration) of the same compound?
Answer: 0.7 g

Question: And the “inhibition of liver regeneration” value (liver regeneration; 30 mg/kg/q.o.d s.c.)?
Answer: inhibited liver regeneration

Question: What about the “inhibition of liver regeneration” value (liver regeneration; 60 mg/kg every four days, listed as Conjugated TNP-470) of the same compound?
Answer: inhibited liver regeneration

Question: What about the “inhibition of liver regeneration” value (liver regeneration; 60 mg/kg every four days, listed as HPMA copolymer-TNP-470 conjugate) of the same compound?
Answer: equivalent effect as the 30 mg/kg q.o.d. dosing schedule

Question: What about the “inhibition of liver regeneration” value (liver regeneration; single injection of 120 mg/kg on the day of hepatectomy, listed as Conjugated TNP-470, 120 mg/kg) of the same compound?
Answer: inhibited liver regeneration

Question: What about the “inhibition of liver regeneration” value (liver regeneration; single injection of 120 mg/kg on the day of hepatectomy, listed as HPMA copolymer-TNP-470 conjugate, 120 mg/kg) of the same compound?
Answer: equivalent effect as the 30 mg/kg q.o.d. dosing schedule

Question: With `COc1cccc2c1C(=O)c1c(O)c3c(c(O)c1C2=O)C[C@@](O)(C(=O)CO)C[C@@H]3O[C@H]1C[C@H](N)[C@H](O)[C@H](C)O1` [doxorubicin] as the compound, how does the t1/2a [2] read?
Answer: a few minutes

Question: For `CO[C@@H]1[C@H](OC(=O)NC(=O)CCl)CC[C@]2(CO2)[C@H]1[C@@]1(C)O[C@@H]1CC=C(C)C` [TNP-470, O-(chloracetyl-carbamoyl) fumagillol], which survival (LLC [1]) is on record?
Answer: increased survival

Question: What about the tumor growth inhibition (LLC [1]) of the same compound?
Answer: 67%

Question: And the “concentration that completely prevented outgrowth” value (chick aortic ring)?
Answer: 100 pg/mL

Question: What about the “concentration that reduced the number and length of vascular sprouts” value (chick aortic ring) of the same compound?
Answer: 50 pg/mL

Question: What about the “effect on normal development (weight gain) of newborn mice” value (Early mouse development) of the same compound?
Answer: causes delay in newborn mice development; also recorded: inhibited growth

Question: And the “inhibition of growth of human tumors” value [3, 6]?
Answer: up to 100%

Question: What about the “inhibition of growth of metastatic tumors” value [3, 6] of the same compound?
Answer: up to 100%

Question: What about the “inhibition of growth of murine tumors” value ([3]; mostly 30 mg/kg subcutaneously every other day) of the same compound?
Answer: up to 91%

Question: What about the “body weight of animals receiving the drug” value ([3]; with few exceptions) of the same compound?
Answer: weight loss or failure to gain weight

Question: What about the body weight [4, 7] of the same compound?
Answer: lost weight

Question: What about the “time remaining on the rotating rod” value [4, 7] of the same compound?
Answer: significantly shorter times

Question: What about the neurohistological alterations ([4]; data not shown) of the same compound?
Answer: no visible neurohistological alterations

Question: And the “concentration at which inhibition of serum-induced proliferation (cytostatic effect) begins” value (A2058 melanoma cells; 72 h)?
Answer: ≥ 10 ng/mL

Question: What about the “doses with cytotoxic effect” value (A2058 melanoma cells; 72 h) of the same compound?
Answer: higher than 100 μg/ml

Question: What about the “potency on endothelial cells relative to tumor cells” value (A2058 melanoma cells; BCE versus A2058 / tumor cells) of the same compound?
Answer: 4 logs and 3 logs

Question: What about the TNP-470 in serum (after the 2 h time point) of the same compound?
Answer: no detectable

Question: What about the “free TNP-470 concentrations in tumor specimens” value (any sample time point) of the same compound?
Answer: no detectable concentrations

Question: And the “T/C (mean tumor volume treated / untreated control)” value (A2058 human melanoma)?
Answer: 0.34

Question: And the survival (A2058 human melanoma)?
Answer: increased survival

Question: And the concentration at 1 h (in vivo)?
Answer: 0.9 ng/mL

Question: What about the concentration at 2 h (in vivo) of the same compound?
Answer: 1.7 ng/mL

Question: And the “toxicity to the mice” value (LLC [5])?
Answer: toxic

Question: What about the water solubility (Water solubility) of the same compound?
Answer: not water-soluble

Question: What about the “average liver size on post-operative day 8” value (liver regeneration) of the same compound?
Answer: 0.7 g

Question: What about the “inhibition of liver regeneration” value (liver regeneration; 30 mg/kg/q.o.d s.c.) of the same compound?
Answer: inhibited liver regeneration

Question: And the “inhibition of liver regeneration” value (liver regeneration; 60 mg/kg every four days)?
Answer: did not inhibit liver regeneration

Question: What about the “inhibition of liver regeneration” value (liver regeneration; single injection of 120 mg/kg on the day of hepatectomy, 120 mg/kg) of the same compound?
Answer: did not inhibit liver regeneration
